# Changes are numbered by the printed parent chain. Where two headings read alike, the source gives them in different places.
# Legend:
# Format in all cases: cell-based
# [1] = test system: VCaP cells; assay: Inhibition of proliferation of VCaP cells (WST-8); conditions: Homo sapiens, read-out: IC50 for inhibiting the proliferation of VCaP cells
# Method in brief: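 VCaP FGC cells, 15000 per well in DMEM with 10% FBS, were cultured at 37° C, 5% CO2. On day nine, WST-8 reagent was added to read proliferation.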
# [2] = biological target: T1, AR protein (Homo sapiens, UniProt P10275); assay: Degradation of AR protein in VCaP cells (Western blot); conditions: 8 hours; for inhibition at 0.01 µM: compound at 10 nM, read-out: Degradation rate of the AR protein in VCaP cells, 10 nM (%); for inhibition at 0.1 µM: compound at 100 nM, read-out: Degradation rate of the AR protein in VCaP cells, 100 nM (%)
# T1 construct: degradation activity of the compounds disclosed in the present disclosure on AR protein in VCaP cells; host or cells: VCaP
# T1 sequence (P10275 1-920): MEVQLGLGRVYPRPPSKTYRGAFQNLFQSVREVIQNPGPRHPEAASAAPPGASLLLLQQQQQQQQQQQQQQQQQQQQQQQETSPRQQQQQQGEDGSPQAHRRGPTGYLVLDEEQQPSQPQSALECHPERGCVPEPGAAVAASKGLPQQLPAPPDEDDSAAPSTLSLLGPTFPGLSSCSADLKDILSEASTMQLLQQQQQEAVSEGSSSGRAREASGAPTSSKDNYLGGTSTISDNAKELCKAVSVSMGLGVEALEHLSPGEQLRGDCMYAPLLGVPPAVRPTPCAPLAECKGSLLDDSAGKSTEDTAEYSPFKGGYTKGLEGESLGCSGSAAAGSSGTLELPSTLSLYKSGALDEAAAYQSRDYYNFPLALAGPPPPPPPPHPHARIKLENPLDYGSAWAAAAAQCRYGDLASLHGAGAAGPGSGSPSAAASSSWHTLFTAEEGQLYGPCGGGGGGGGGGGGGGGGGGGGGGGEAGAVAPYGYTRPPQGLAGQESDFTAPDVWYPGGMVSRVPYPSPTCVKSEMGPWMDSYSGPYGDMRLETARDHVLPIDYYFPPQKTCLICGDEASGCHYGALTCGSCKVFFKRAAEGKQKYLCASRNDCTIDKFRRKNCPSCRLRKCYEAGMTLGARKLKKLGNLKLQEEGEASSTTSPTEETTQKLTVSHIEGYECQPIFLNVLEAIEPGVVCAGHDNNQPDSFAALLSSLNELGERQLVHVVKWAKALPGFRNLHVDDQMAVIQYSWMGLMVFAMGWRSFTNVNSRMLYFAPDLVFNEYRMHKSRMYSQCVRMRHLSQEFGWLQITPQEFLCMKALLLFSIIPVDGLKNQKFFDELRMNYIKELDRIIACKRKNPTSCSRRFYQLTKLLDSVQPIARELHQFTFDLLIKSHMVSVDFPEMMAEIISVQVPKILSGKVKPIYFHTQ
# Method in brief: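 VCaP cells treated with compound alongside solvent controls for 8 h, then lysed in RIPA and protein quantified by BCA. AR detected by SDS-PAGE/Western blot with infrared imaging. Degradation rate calculated from band grayscale, with GAPDH as internal reference.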
# [3] = test system: LNCaP FGC cells; assay: Inhibition of proliferation of LNCaP cells (WST-8); conditions: Homo sapiens, LNCaP, 96 h
# Procedure: The cells were cultured in a cell culture incubator with 5% CO2 at 37° C. overnight. […] On the sixth day, 96 well plates were taken out, and 20 μL of WST-8 (Beytime, C0040) reagent was added to each well.
# [4] = biological target: T2, AR protein (Homo sapiens, UniProt P10275, T878A); assay: Degradation of AR protein in LNCaP cells (Western blot); conditions: for inhibition at 0.01 µM: read-out: Degradation rates of the AR protein in LNCaP cells, 10 nM (%); for inhibition at 0.1 µM: read-out: Degradation rates of the AR protein in LNCaP cells, 100 nM (%)
# T2 construct: degradation activity of the compounds disclosed in the present disclosure on AR protein in LNCaP cells; host or cells: LNCaP FGC
# T2 sequence (P10275 1-920 T878A): T1 sequence (P10275 1-920) with T878A
# Method in brief: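 AR assessed by SDS-PAGE/Western blot with infrared imaging; band greyscale normalised to GAPDH gave percent degradation.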
# [5] = VCaP cells, 168 hours, WST-8 absorbance at 450 nm
# [6] = LNCaP FGC cells, 96 hours, WST-8 absorbance at 450 nm, read-out: IC50 for inhibiting the proliferation of LNCaP cells
# [7] = LNCaP cells, compound 10 nM, 8 hours, Western blot grayscale, GAPDH internal reference
# [8] = LNCaP cells, compound 100 nM, 8 hours, Western blot grayscale, GAPDH internal reference
Structure (SMILES),"IC50 [1, 5] [nM]",inhibition at 0.01 µM [2] [%],inhibition at 0.1 µM [2] [%],"IC50 [3, 6] [nM]","inhibition at 0.01 µM [4, 7] [%]","inhibition at 0.1 µM [4, 8] [%]","IC50 ([1]; VCaP, 168 h) [nM]","IC50 ([3]; read-out: IC50 for inhibiting the proliferation of LNCaP cells, LNCaP FGC cells, 96 hours, WST-8 absorbance at 450 nm) [nM]","inhibition at 0.01 µM ([4]; LNCaP, 8 h) [%]","inhibition at 0.1 µM ([4]; LNCaP, 8 h) [%]"
COc1cc(O[C@H]2C(C)(C)[C@H](NC(=O)c3ccc(N4CCC(C)(CN5CCC6(CC5)COc5c6ccc6c5CN(C5CCC(=O)NC5=O)C6=O)CC4)cc3)C2(C)C)ccc1C#N (stereo partly drawn) [Compound 221],1.5,16,64,46,24,76,–,–,–,–
N#Cc1ccc(O[C@H]2CC[C@H](NC(=O)c3ccc(N4CC5(CC(N6CCC7(CCc8ccc9c(c8O7)CN(C7CCC(=O)NC7=O)C9=O)CC6)C5)C4)nn3)CC2)cc1Cl (stereo partly drawn) [Compound 152],> 90000,51,72,28300,45,24,–,–,–,–
N#Cc1ccc(O[C@H]2CC[C@H](NC(=O)c3ccc(N4CCC(C#N)(CN5CCC6(CC5)COc5c6ccc6c5C(=O)N(C5CCC(=O)NC5=O)C6=O)CC4)nn3)CC2)cc1Cl (stereo partly drawn) [Compound 227],30,24,60,170,45,62,–,–,–,–
N#Cc1ccc(O[C@H]2CC[C@H](NC(=O)c3ccc(N4CCC(C#N)(CN5CCC6(CC5)COc5c6ccc6c5C(=O)N(C5CCC(=O)NC5=O)C6=O)CC4)nn3)CC2)cc1C(F)(F)F (stereo partly drawn) [Compound 228],470,-9,18,2290,30,56,–,–,–,–
N#Cc1ccc(O[C@H]2CC[C@H](NC(=O)c3ccc(N4CC(CN5CCC6(CC5)COc5cc7c(cc56)C(=O)N(C5CCC(=O)NC5=O)C7=O)C4)nn3)CC2)cc1Cl (stereo partly drawn) [Compound 55],83,77,80,1000,44,69,–,–,–,–
COc1cc(O[C@H]2C(C)(C)[C@H](NC(=O)c3ccc(N4CCC(F)(CN5CCC6(CCc7cc8c(cc7O6)C(=O)N(C6CCC(=O)NC6=O)C8=O)CC5)CC4)cc3)C2(C)C)ccc1C#N (stereo partly drawn) [Compound 270],110,9,28,72000,47,40,–,–,–,–
CCC1(CN2CCC3(CC2)COc2c3ccc3c2C(=O)N(C2CCC(=O)NC2=O)C3=O)CCN(c2ccc(C(=O)N[C@H]3C(C)(C)[C@H](Oc4ccc(C#N)c(OC)c4)C3(C)C)cc2)CC1 (stereo partly drawn) [Compound 286],57,-33,-9,3720,22,34,–,–,–,–
N#Cc1ccc(O[C@H]2CC[C@H](NC(=O)c3ccc(N4CCC(N5CCC6(CCc7ccc8c(c7O6)CN(C6CCC(=O)NC6=O)C8=O)CC5)CC4)nn3)CC2)cc1Cl (stereo partly drawn) [Compound 171],–,46,62,–,–,–,1,13500,22,44
COc1cc(O[C@H]2CC[C@H](NC(=O)c3cnc(N4CCC(CN5CCC6(CC5)COc5c6ccc6c5C(=O)N(C5CCC(=O)NC5=O)C6=O)(OC)CC4)nc3)CC2)ccc1C#N (stereo partly drawn) [Compound 220],51,22,78,64,32,63,–,–,–,–
N#Cc1ccc(O[C@H]2CC[C@H](NC(=O)c3ccc(C#Cc4ccc(N5CCC6(CC5)COc5c6ccc6c5CN(C5CCC(=O)NC5=O)C6=O)nc4)nn3)CC2)cc1Cl (stereo partly drawn) [Compound 239],22,11,54,13500,65,69,–,–,–,–
N#Cc1ccc(O[C@H]2CC[C@H](NC(=O)c3ccc(N4CC[C@H](CN5CCC6(CC5)COc5cc7c(cc5C6)C(=O)N(C5CCC(=O)NC5=O)C7=O)C4)nn3)CC2)cc1Cl (stereo partly drawn) [Compound 74],600,47,65,600,39,79,–,–,–,–
